In test [1] the target is T1, human FXR (NR1H4) (Homo sapiens, UniProt Q96RI1).
T1 sequence (Q96RI1 1-476 isoform Q96RI1-1): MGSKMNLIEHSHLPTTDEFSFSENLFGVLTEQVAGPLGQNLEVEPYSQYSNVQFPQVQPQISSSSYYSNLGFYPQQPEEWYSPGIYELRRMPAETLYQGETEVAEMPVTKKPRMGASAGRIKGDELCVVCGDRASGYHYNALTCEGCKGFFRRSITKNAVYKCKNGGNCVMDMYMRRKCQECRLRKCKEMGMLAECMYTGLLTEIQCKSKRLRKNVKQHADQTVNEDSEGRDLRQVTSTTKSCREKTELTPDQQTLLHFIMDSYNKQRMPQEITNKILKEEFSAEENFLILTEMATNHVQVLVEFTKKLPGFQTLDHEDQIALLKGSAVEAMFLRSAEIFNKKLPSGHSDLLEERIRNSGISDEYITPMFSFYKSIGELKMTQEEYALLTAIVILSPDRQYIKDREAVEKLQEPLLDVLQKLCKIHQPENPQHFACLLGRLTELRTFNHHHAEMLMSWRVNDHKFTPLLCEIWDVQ
Kind of test: Human FXR (NR1H4) agonist assessment, FXRE-NanoLuc reporter in HEK293T cells. It counts as cell-based. The following applies: FXR activation, HEK293T FXRE-NanoLuc reporter, 24 hr; for pEC50: read-out: EC50. A digest of the protocol:
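Read-out was NanoLuc luminescence in culture medium, measured 5 min after adding coelenterazine. Cells were HEK293T stably carrying human FXR and an FXRE reporter, exposed to compound for 24 hr at 37 °C. Vehicle was 0.01% DMSO. EC50 was obtained from sigmoid fits of gradient dilutions.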

Test [2] concerns the target MRGPRX4 (Homo sapiens, UniProt Q96LA9). Nature of the test: MRGPRX4 activation, Fluo-8 Ca2+ FLIPR assay in HEK293T cells stably expressing MRGPRX4. It counts as cell-based. Further details: key to MRGPRX4 activation, Average / MRGPRX4 activation, Ave.: fluorescence change dF/F0. Conditions: for EC50: MRGPRX4 activation, Ca2+ fluorescence, no activation in tested range reported as III, read-out: Activity (EC50 μM). In outline:
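Response measured as dF/F0: 30 s baseline, then 150 s after compound addition on FLIPR Tetra, in HHBS after 40-60 min room-temperature loading with 2 μM Fluo-8 AM.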

Setting [3] is: E3-6-2, 1st of 6 concentration columns (head not in rows shown).
The mark [4] stands for this setting: E3-6-2, 3rd of 6 concentration columns (head not in rows shown).
Setting [5] is: E3-6-2, 6th of 6 concentration columns (head not in rows shown).
[6] abbreviates: E3-6-2, concentration not given.

pEC50: −log10 of the molar value.

The term pEC50 denotes the negative decadic logarithm of the EC50, by convention in mol/L. For orientation: EC50 means the midpoint of the concentration-response curve.

Sequence of MRGPRX4 (Q96LA9 whole entry): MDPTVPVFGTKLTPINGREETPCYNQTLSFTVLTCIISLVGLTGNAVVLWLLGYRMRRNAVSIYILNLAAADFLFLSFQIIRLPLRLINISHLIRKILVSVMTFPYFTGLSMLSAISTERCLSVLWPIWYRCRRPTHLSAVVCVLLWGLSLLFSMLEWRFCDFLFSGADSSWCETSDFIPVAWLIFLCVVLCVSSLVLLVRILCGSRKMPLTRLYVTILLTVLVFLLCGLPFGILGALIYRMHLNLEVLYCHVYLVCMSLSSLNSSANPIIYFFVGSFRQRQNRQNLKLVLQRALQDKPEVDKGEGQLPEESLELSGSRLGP

On to `CC[C@H]1[C@@H](O)[C@@H]2[C@H](CC[C@]3(C)[C@@H]([C@H](C)CCNC(=O)NS(=O)(=O)c4ccc(C)cc4)CC[C@@H]23)[C@@]2(C)CCCC[C@@H]12` [5-8], for which the “Efficacy (maximum measured induction of NanoLuc, normalized to CDCA set as 100%)” value in test [1] is given as “C (100%<efficacy <=300%)”. In test [1], the pEC50 is greater than 6.00. For the same molecule, the “MRGPRX4 activation, fluorescence change (dF/F0), Average” value (shortened to “MRGPRX4 activation, fluorescence change”) amounted to 0.073 in test [2] (Conc. (Log[M]) −4); 0.037 in test [2] (Conc. (Log[M]) −4.5); 0.023 in test [2] (Conc. (Log[M]) −5); 0.017 in test [2] (Conc. (Log[M]) −5.5); 0.020 in test [2] (Conc. (Log[M]) −6); 0.023 in test [2] (Conc. (Log[M]) −7). In addition, the EC50 in test [2] is greater than 100 µM.
Regarding `CC[C@H]1[C@@H](O)[C@@H]2[C@H](CC[C@]3(C)[C@@H]([C@H](C)CCNC(=O)NS(=O)(=O)c4ccc(C(C)(C)C(=O)O)cc4)CC[C@@H]23)[C@@]2(C)CCCC[C@@H]12` [5-10], the “Efficacy (maximum measured induction of NanoLuc, normalized to CDCA set as 100%)” value in test [1] was “C (100%<efficacy <=300%)”. Also, the pEC50 in test [1] was greater than 6.00. Further, the “MRGPRX4 activation, fluorescence change” value in test [2] (Conc. (Log[M]) −4) is reported as 0.090; in test [2] (Conc. (Log[M]) −4.5), 0.043; in test [2] (Conc. (Log[M]) −5), 0.013; in test [2] (Conc. (Log[M]) −5.5), 0.017; in test [2] (Conc. (Log[M]) −6) it was 0.020; in test [2] (Conc. (Log[M]) −7) it was 0.030. Also, in test [2], the EC50 was greater than 100 µM.
Take `CC[C@H]1[C@@H](O)[C@@H]2[C@H](CC[C@]3(C)[C@@H]([C@H](C)CCNC(=O)NS(=O)(=O)N4CCCC4)CC[C@@H]23)[C@@]2(C)CCCC[C@@H]12` [5-11]: the “Efficacy (maximum measured induction of NanoLuc, normalized to CDCA set as 100%)” value in test [1] is “C (100%<efficacy <=300%)”. In addition, the pEC50 in test [1] is 5.00 to 6.00. The “MRGPRX4 activation, fluorescence change” value in test [2] (Conc. (Log[M]) −4) is 0.057; in test [2] (Conc. (Log[M]) −4.5), 0.030; in test [2] (Conc. (Log[M]) −5), 0.033; in test [2] (Conc. (Log[M]) −5.5), 0.013; in test [2] (Conc. (Log[M]) −6), 0.023; in test [2] (Conc. (Log[M]) −7), 0.067. The EC50 in test [2] was greater than 100 µM.
For `CC[C@H]1[C@@H](O)[C@@H]2[C@H](CC[C@]3(C)[C@@H]([C@H](C)CCNC(=O)NS(=O)(=O)N4CC5CC5C4)CC[C@@H]23)[C@@]2(C)CCCC[C@@H]12` (stereo partly shown) [5-12], the “Efficacy (maximum measured induction of NanoLuc, normalized to CDCA set as 100%)” value in test [1] is “C (100%<efficacy <=300%)”. For the same molecule, the pEC50 in test [1] is 5.00 to 6.00. Further, the “MRGPRX4 activation, Average” value came to 0.057 in test [2] (setting [3]), 0.023 in test [2] (setting [4]), 0.013 in test [2] (setting [5]) and 0.013 in test [2] (setting [6]). The EC50 in test [2] was greater than 100 µM.
`CC[C@H]1[C@@H](O)[C@@H]2[C@H](CC[C@]3(C)[C@@H]([C@H](C)CCNC(=O)NS(=O)(=O)Cc4ccccc4)CC[C@@H]23)[C@@]2(C)CCCC[C@@H]12` [5-13]: in test [1], the “Efficacy (maximum measured induction of NanoLuc, normalized to CDCA set as 100%)” value was “C (100%<efficacy <=300%)”. Moreover, the pEC50 in test [1] was greater than 6.00. Further, the “MRGPRX4 activation, Average” value in test [2] (setting [3]) is on record as 0.060; in test [2] (setting [4]), 0.030; in test [2] (setting [5]), 0.027; in test [2] (setting [6]), 0.017. Besides, in test [2], the EC50 is greater than 100 µM.
For `CCCCS(=O)(=O)NC(=O)NCC[C@@H](C)[C@H]1CC[C@H]2[C@@H]3[C@H](O)[C@H](CC)[C@@H]4CCCC[C@]4(C)[C@H]3CC[C@]12C` [5-14], the “Efficacy (maximum measured induction of NanoLuc, normalized to CDCA set as 100%)” value in test [1] was “C (100%<efficacy <=300%)”. Also, the pEC50 in test [1] is greater than 6.00. Also, the “MRGPRX4 activation, Average” value was 0.070 in test [2] (setting [3]), 0.017 in test [2] (setting [4]), 0.017 in test [2] (setting [5]) and 0.017 in test [2] (setting [6]). For the same molecule, in test [2], the EC50 is greater than 100 µM.
For the molecule `CC[C@H]1[C@@H](O)[C@@H]2[C@H](CC[C@]3(C)[C@@H]([C@H](C)CCNC(=O)NS(=O)(=O)c4ccc(C(C)(C)C(N)=O)cc4)CC[C@@H]23)[C@@]2(C)CCCC[C@@H]12` [5-16], in test [1], the “Efficacy (maximum measured induction of NanoLuc, normalized to CDCA set as 100%)” value is listed as “C (100%<efficacy <=300%)”. In addition, the pEC50 in test [1] was greater than 6.00. The “MRGPRX4 activation, fluorescence change” value in test [2] (Conc. (Log[M]) −4.0) was 0.030; in test [2] (Conc. (Log[M]) −4.5) it was 0.020; in test [2] (Conc. (Log[M]) −5.0), 0.010; in test [2] (Conc. (Log[M]) −5.4) it was 0.020; in test [2] (Conc. (Log[M]) −5.9), 0.020; in test [2] (Conc. (Log[M]) −6.4), 0.013. The “MRGPRX4 activation, fluorescence change” value in test [2] (Conc. (Log[M]) −6.9) was 0.013; in test [2] (Conc. (Log[M]) −7.3), 0.013; in test [2] (Conc. (Log[M]) −7.8) it was 0.013; in test [2] (Conc. (Log[M]) −8.3) it was 0.025. Moreover, the EC50 in test [2] was greater than 100 µM.
With `CC[C@H]1[C@@H](O)[C@@H]2[C@H](CC[C@]3(C)[C@@H]([C@H](C)CCNC(=O)NS(=O)(=O)c4ccc(C(C)(C)C#N)cc4)CC[C@@H]23)[C@@]2(C)CCCC[C@@H]12` [5-17], the “Efficacy (maximum measured induction of NanoLuc, normalized to CDCA set as 100%)” value in test [1] was “C (100%<efficacy <=300%)”. For the same molecule, the pEC50 in test [1] was greater than 6.00. Besides, the “MRGPRX4 activation, fluorescence change” value in test [2] (Conc. (Log[M]) −4.0) came out at 0.016; in test [2] (Conc. (Log[M]) −4.5) it was 0.018; in test [2] (Conc. (Log[M]) −5.0), 0.019; in test [2] (Conc. (Log[M]) −5.4) it was 0.016; in test [2] (Conc. (Log[M]) −5.9) it was 0.018; in test [2] (Conc. (Log[M]) −6.4) it was 0.018. For the same molecule, the “MRGPRX4 activation, fluorescence change” value was 0.011 in test [2] (Conc. (Log[M]) −6.9), 0.018 in test [2] (Conc. (Log[M]) −7.3), 0.020 in test [2] (Conc. (Log[M]) −7.8) and 0.013 in test [2] (Conc. (Log[M]) −8.3). Further, the EC50 in test [2] is greater than 100 µM.
In the case of `CC[C@H]1[C@@H](O)[C@@H]2[C@H](CC[C@]3(C)[C@@H]([C@H](C)CCNC(=O)NS(=O)(=O)c4ccc(C(C)(C)CN)cc4)CC[C@@H]23)[C@@]2(C)CCCC[C@@H]12` [5-18], the “Efficacy (maximum measured induction of NanoLuc, normalized to CDCA set as 100%)” value in test [1] is listed as “B (300%<efficacy <=400%)”. The pEC50 in test [1] is greater than 6.00. Further, the “MRGPRX4 activation, fluorescence change” value in test [2] (Conc. (Log[M]) −4.0) worked out at 0.018; in test [2] (Conc. (Log[M]) −4.5) it was 0.008; in test [2] (Conc. (Log[M]) −5.0) it was 0.021; in test [2] (Conc. (Log[M]) −5.4), 0.021; in test [2] (Conc. (Log[M]) −5.9), 0.021; in test [2] (Conc. (Log[M]) −6.4) it was 0.021. Besides, the “MRGPRX4 activation, fluorescence change” value in test [2] (Conc. (Log[M]) −6.9) stood at 0.011; in test [2] (Conc. (Log[M]) −7.3) it was 0.018; in test [2] (Conc. (Log[M]) −7.8) it was 0.020; in test [2] (Conc. (Log[M]) −8.3), 0.013. In test [2], the EC50 was greater than 100 µM.
Regarding `CC[C@H]1[C@@H](O)[C@@H]2[C@H](CC[C@]3(C)[C@@H]([C@H](C)CCNC(=O)NS(=O)(=O)c4ccc(C5(CO)CCCC5)cc4)CC[C@@H]23)[C@@]2(C)CCCC[C@@H]12` [5-21], the “Efficacy (maximum measured induction of NanoLuc, normalized to CDCA set as 100%)” value in test [1] is listed as “C (100%<efficacy <=300%)”. The pEC50 in test [1] was greater than 6.00. Also, the “MRGPRX4 activation, fluorescence change” value turned out to be 0.018 in test [2] (Conc. (Log[M]) −4.0); 0.016 in test [2] (Conc. (Log[M]) −4.5); 0.020 in test [2] (Conc. (Log[M]) −5.0); 0.018 in test [2] (Conc. (Log[M]) −5.4); 0.018 in test [2] (Conc. (Log[M]) −5.9); 0.016 in test [2] (Conc. (Log[M]) −6.4). Also, the “MRGPRX4 activation, fluorescence change” value was found to be 0.018 in test [2] (Conc. (Log[M]) −6.9), 0.016 in test [2] (Conc. (Log[M]) −7.3), 0.020 in test [2] (Conc. (Log[M]) −7.8) and 0.018 in test [2] (Conc. (Log[M]) −8.3). Also, the EC50 in test [2] was greater than 100 µM.

Source of the values: patent US20260116910A1, “POLYCYCLIC COMPOUNDS AND METHODS THEREOF” (HEPAITECH (BEIJING) BIOPHARMA TECHNOLOGY CO., LTD., priority 2021, published 2026).
